The subject of one assay is E. coli 250BE1 (SHV4). In words: MIC, micro-dilution in liquid medium, β-lactamine with product at 5 mg/l. The assay is classed as cell-based. As to conditions: compound at 5 mg/l, 24 hours at 37° C.; for MIC of Piperacillin in combination with the compound: Trial 7, 250BE1 SHV4; for MIC of Cefotaxime in combination with the compound: Trial 7, 250BE1 E. coli SHV4. Put shortly: (§1)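 MIC values (mg/l) correspond to the β-lactamine concentration at which no bacterial development occurs after 24 hours at 37° C. Each strain is grown in liquid medium across a β-lactamine concentration series, with the product present throughout at a constant 5 mg/l.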
In general terms: Broth dilution looks for growth in wells or tubes with falling amounts of substance.

The test system of a further assay is E. coli 250HT22 (Tem2). The description is as above. It counts as cell-based. The following applies: compound at 5 mg/l, 24 hours at 37° C.; for MIC of Piperacillin in combination with the compound: Trial 3, 250HT22 Tem2; for MIC of Cefotaxime in combination with the compound: Trial 3, 250HT22 E. coli Tem2. Put shortly:
as §1

Assay [1] has as its system S. aureus 011GO66 (PeniR). The assay is described as above. The following applies: compound at 5 mg/l, 24 hours at 37° C.; for MIC of Piperacillin in combination with the compound: Trial 1, 011GO66 peniR; for MIC of Cefotaxime in combination with the compound: Trial 1, 011GO66 S. aureus PeniR. The assay is classed as cell-based. Put shortly:
as §1

The subject of assay [2] is E. cloacae 293HT6 (Class C). The assay is described as above. The assay is classed as cell-based. As to conditions: compound at 5 mg/l, 24 hours at 37° C.; for MIC of Piperacillin in combination with the compound: Trial 9, 293HT6 Class; for MIC of Cefotaxime in combination with the compound: Trial 9, 293HT6 E. cloacae Class C. The procedure, abridged: as §1
The test system of assay [3] is P. aeruginosa 391HT7 (PSE). The assay is described as above. The assay is classed as cell-based. As to conditions: compound at 5 mg/l, 24 hours at 37° C.; for MIC of Piperacillin in combination with the compound: Trial 11, 391HT7 PSE; for MIC of Cefotaxime in combination with the compound: Trial 11, 391HT7 P. aeruginosa PSE. The procedure, abridged: as §1
In the next assay the test system is E. coli 250HT21 (Tem1). The assay is described as above. It counts as cell-based. As to conditions: compound at 5 mg/l, 24 hours at 37° C.; for MIC of Piperacillin in combination with the compound: Trial 2, 250HT21 Tem1; for MIC of Cefotaxime in combination with the compound: Trial 2, 250HT21 E. coli Tem1. Put shortly: as §1
The next assay concerns E. coli 250HT26 (SHV1). The description is as above. The following applies: compound at 5 mg/l, 24 hours at 37° C.; for MIC of Piperacillin in combination with the compound: Trial 6, 250HT26 SHV1; for MIC of Cefotaxime in combination with the compound: Trial 6, 250HT26 E. coli SHV1. It counts as cell-based. Put shortly:
as §1

The test system of assay [4] is P. aeruginosa 391HT8 (PSE). Described as above. The assay is classed as cell-based. The following applies: compound at 5 mg/l, 24 hours at 37° C.; for MIC of Piperacillin in combination with the compound: Trial 12, 391HT8 PSE; for MIC of Cefotaxime in combination with the compound: Trial 12, 391HT8 P. aeruginosa PSE. The procedure, abridged: as §1
Assay [5] concerns E. coli 250HT23 (Class D). Described as above. The assay is classed as cell-based. As to conditions: compound at 5 mg/l, 24 hours at 37° C.; for MIC of Piperacillin in combination with the compound: Trial 8, 250HT23 Class D; for MIC of Cefotaxime in combination with the compound: Trial 8, 250HT23 E. coli Class D. Put shortly: as §1
A further assay has as its system Serratia 301HT6. Described as above. As to conditions: compound at 5 mg/l; Trial 10, 301HT6 Serratia; 24 hours at 37° C. It counts as cell-based. Put shortly: as §1
The next assay concerns E. coli 250SJ1 (Tem7). The assay is described as above. The following applies: compound at 5 mg/l, 24 hours at 37° C.; for MIC of Piperacillin in combination with the compound: Trial 5, 250SJ1 Tem7; for MIC of Cefotaxime in combination with the compound: Trial 5, 250SJ1 E. coli Tem7. It counts as cell-based. The procedure, abridged:
as §1

In another assay the target is T1, β-lactamase TEM1 (Escherichia coli, UniProt P62593).
T1 construct: The β-lactamases are isolated from bacterial strains which are resistant to penicillins and cephalosporins; endogenous in cells; host or cells: E. coli 250HT21 (natural producer; French-press lysate, 100,000 g supernatant)
In words: Inhibition of isolated β-lactamase Tem-1 (Nitrocefin hydrolysis). The assay is classed as biochemical, E.coli 250HT21. The following applies: 100 μM Nitrocefin, 50 mM sodium phosphate buffer pH7.0, 37° C. Put shortly: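 TEM-1 from soluble extract of E. coli 250HT21, normalized enzyme, 100 μM Nitrocefin in 50 mM sodium phosphate pH 7.0 at 37 °C. Initial-rate hydrolysis read kinetically at 485 nm, with and without 5 min enzyme–inhibitor preincubation. CI50 from 6 or 8 concentrations in duplicate.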

The next assay relates to E. coli 250CF1 (Tem3). In words: microbe, parasite or virus in culture. It counts as cell-based. The following applies: compound at 5 mg/l, 24 hours at 37° C.; for MIC of Piperacillin in combination with the compound: Trial 4, 250CF1 Tem3; for MIC of Cefotaxime in combination with the compound: Trial 4, 250CF1 E. coli Tem3. The procedure, abridged:
as §1

A further assay has as its target T2, β-lactamase P99 (Enterobacter cloacae, UniProt P05364).
T2 construct: The β-lactamases are isolated from bacterial strains which are resistant to penicillins and cephalosporins; endogenous in cells; host or cells: Enterobacter cloacae 293HT6 (natural producer; French-press lysate, 100,000 g supernatant)
In words: biochemical. The procedure, abridged:
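P99 β-lactamase, taken from the soluble fraction of an Enterobacter cloacae 293HT6 lysate, was assayed at 37° C. in 50 mM sodium phosphate buffer pH7.0 with 100 μM Nitrocefin as the chromogenic substrate. Hydrolysis was followed kinetically at 485 nm at initial speed, with and without a 5 mn enzyme–inhibitor preincubation. Inhibitors were tested at 6 or 8 concentrations in duplicate, and IC50 was fitted with GraFit.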

The mark [6] stands for this setting: 100 μM Nitrocefin, 50 mM sodium phosphate buffer pH7.0, 37° C., read-out: IC50 nM/P99.

SMILES strings stand for the structures. Where a name gives a salt, the structure may show the parent alone. Read-outs that look alike come from different tables or passages of the source.

Here are results for four molecules from patent US7612087B2, “Heterocyclic compounds as inhibitors of beta-lactamases” (Novexel, priority 2002, dated 2009).

T2 sequence (P05364 21-381): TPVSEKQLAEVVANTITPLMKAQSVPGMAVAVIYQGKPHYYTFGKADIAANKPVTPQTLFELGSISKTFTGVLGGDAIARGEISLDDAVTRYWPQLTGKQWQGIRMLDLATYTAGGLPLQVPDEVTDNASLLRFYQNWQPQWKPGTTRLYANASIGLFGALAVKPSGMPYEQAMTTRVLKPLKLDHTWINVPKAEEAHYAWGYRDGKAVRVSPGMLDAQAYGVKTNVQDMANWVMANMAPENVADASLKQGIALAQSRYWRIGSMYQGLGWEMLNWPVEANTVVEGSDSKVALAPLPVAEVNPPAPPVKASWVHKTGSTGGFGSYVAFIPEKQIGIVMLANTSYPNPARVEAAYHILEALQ
T1 sequence (P62593 24-286 limits assumed): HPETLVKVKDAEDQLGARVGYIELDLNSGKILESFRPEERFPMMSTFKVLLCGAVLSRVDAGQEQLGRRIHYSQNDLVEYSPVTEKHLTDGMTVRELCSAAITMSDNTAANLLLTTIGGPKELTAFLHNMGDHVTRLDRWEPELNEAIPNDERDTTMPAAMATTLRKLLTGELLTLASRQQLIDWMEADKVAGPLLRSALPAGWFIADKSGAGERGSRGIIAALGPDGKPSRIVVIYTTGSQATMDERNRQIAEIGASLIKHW

Take `NC(=O)C(NC(=O)[C@H]1CC[C@@H]2CN1C(=O)N2OS(=O)(=O)[O-])c1ccccc1.[Na+]` (relative stereo) [Example 47, sodium salt of trans-N-(2-amino-2-oxo-1-phenylethyl)-7-oxo-6-(sulphooxy)-1,6-diazabicyclo[3.2.1]octane-2-carboxamide]: the “MIC of Piperacillin in combination with the compound” value (“MIC of Piperacillin in combination” below) was 5 µg/mL in the assay on E. coli 250BE1 (SHV4); 20 µg/mL with E. coli 250HT22 (Tem2); 0.6 µg/mL in assay [1]; more than 40 µg/mL in assay [2]; more than 40 µg/mL in assay [3]; 2.5 µg/mL in the assay on E. coli 250HT21 (Tem1). The “MIC of Piperacillin in combination” value in the assay on E. coli 250HT26 (SHV1) is 2.5 µg/mL; in assay [4] it was more than 40 µg/mL; in assay [5], 10 µg/mL; in the assay with Serratia 301HT6 it was 1.2 µg/mL; in the assay on E. coli 250SJ1 (Tem7) it was 40 µg/mL; in the assay with E. coli 250CF1 (Tem3), 5 µg/mL. Moreover, the figures for the IC50 against β-lactamase TEM1 and on β-lactamase P99 (setting [6]) were 18 nM and 43 nM, respectively.

As for `O=C(OCCc1ccccn1)[C@H]1CC[C@@H]2CN1C(=O)N2OS(=O)(=O)[O-].[Na+]` (relative stereo) [Example 50, sodium salt of trans 2-(2-pyridinyl)ethyl 7-oxo-6-(sulphooxy)-1,6-diazabicyclo[3.2.1]octane-2-carboxylate], the “MIC of Piperacillin in combination” value was 40 µg/mL in the assay with E. coli 250BE1 (SHV4); 40 µg/mL with E. coli 250HT22 (Tem2); 1.2 µg/mL in assay [1]; more than 40 µg/mL in [2]; more than 40 µg/mL in assay [3]; 2.5 µg/mL with E. coli 250HT21 (Tem1). For the same molecule, the “MIC of Piperacillin in combination” value is 40 µg/mL with E. coli 250HT26 (SHV1); more than 40 µg/mL in assay [4]; 40 µg/mL in [5]; 0.6 µg/mL in the assay on Serratia 301HT6; 40 µg/mL in the assay on E. coli 250SJ1 (Tem7); 5 µg/mL in the assay with E. coli 250CF1 (Tem3). In addition, the IC50 against β-lactamase TEM1 was found to be 18 nM; on β-lactamase P99 (setting [6]) it was 150 nM.

As to `O=C(NCc1cccnc1)C1CCC2CN1C(=O)N2OS(=O)(=O)O` (stereo not drawn) [Example 43, sodium salt of trans-7-oxo-N-(3-pyridinylmethyl)-6-(sulphooxy)-1,6-diazabicyclo[3.2.1]octane-2-carboxamide], the “MIC of Cefotaxime in combination with the compound” value (shortened to “MIC of Cefotaxime in combination”) in the assay on E. coli 250BE1 (SHV4) was “<=0.04 μg/ml”; with E. coli 250HT22 (Tem2), “<=0.04 μg/ml”; in [1] it was 2.5 µg/mL; in assay [2] it was 0.08 µg/mL; in assay [3], 20 µg/mL; with E. coli 250HT21 (Tem1) it was “<=0.04 μg/ml”. For the same molecule, the “MIC of Cefotaxime in combination” value in the assay on E. coli 250HT26 (SHV1) is “<=0.04 μg/ml”; in [4] it was 20 µg/mL; in assay [5], “<=0.04 μg/ml”; with Serratia 301HT6, “<=0.04 μg/ml”; in the assay with E. coli 250SJ1 (Tem7) it was “<=0.04 μg/ml”; in the assay with E. coli 250CF1 (Tem3), 0.08 µg/mL. In addition, the “MIC of Piperacillin in combination” value in the assay on E. coli 250BE1 (SHV4) was 10 µg/mL; in the assay on E. coli 250HT22 (Tem2), 1.2 µg/mL; in [1] it was 1.2 µg/mL; in assay [2], 2.5 µg/mL; in [3], more than 40 µg/mL; with E. coli 250HT21 (Tem1), 1.2 µg/mL. The “MIC of Piperacillin in combination” value was 5 µg/mL in the assay with E. coli 250HT26 (SHV1); more than 40 µg/mL in assay [4]; 2.5 µg/mL in assay [5]; 0.6 µg/mL with Serratia 301HT6; 5 µg/mL in the assay on E. coli 250SJ1 (Tem7); 2.5 µg/mL in the assay on E. coli 250CF1 (Tem3). The IC50 was 31 nM at β-lactamase TEM1 and 76 nM on β-lactamase P99.

For `NC(=O)C(Cc1ccccc1)NC(=O)C1CCC2CN1C(=O)N2OS(=O)(=O)O` (stereo not drawn) [Example 44, sodium salt of trans-N-(1-amino-1-oxo-3-phenyl-2-propyl)-7-oxo-6-(sulphooxy)-1,6-diazabicyclo[3.2.1]octane-2-carboxamide], the “MIC of Cefotaxime in combination” value in the assay on E. coli 250BE1 (SHV4) is 0.6 µg/mL; with E. coli 250HT22 (Tem2), 0.15 µg/mL; in assay [1] it was 2.5 µg/mL; in [2] it was more than 40 µg/mL; in assay [3], more than 40 µg/mL; with E. coli 250HT21 (Tem1) it was “<=0.04 μg/ml”. The “MIC of Cefotaxime in combination” value was 0.08 µg/mL in the assay on E. coli 250HT26 (SHV1); more than 40 µg/mL in [4]; “<=0.04 μg/ml” in assay [5]; 10 µg/mL in the assay on Serratia 301HT6; 0.08 µg/mL with E. coli 250SJ1 (Tem7); 0.3 µg/mL with E. coli 250CF1 (Tem3). For the same molecule, the “MIC of Piperacillin in combination” value is more than 40 µg/mL with E. coli 250BE1 (SHV4); more than 40 µg/mL in the assay with E. coli 250HT22 (Tem2); 2.5 µg/mL in [1]; more than 40 µg/mL in assay [2]; more than 40 µg/mL in [3]; 5 µg/mL in the assay on E. coli 250HT21 (Tem1). Further, the “MIC of Piperacillin in combination” value with E. coli 250HT26 (SHV1) was more than 40 µg/mL; in [4], more than 40 µg/mL; in assay [5], 40 µg/mL; in the assay on Serratia 301HT6, more than 40 µg/mL; in the assay with E. coli 250SJ1 (Tem7), more than 40 µg/mL; in the assay on E. coli 250CF1 (Tem3), 40 µg/mL. Also, the IC50 at β-lactamase TEM1 is 59 nM; against β-lactamase P99, 100 nM.
